Laboratory results taken from article PMC11962085, “Molecular mechanisms of urate transport by the native human URAT1 and its inhibition by anti-gout drugs” (Cell Discovery, 2025).
Residue numbers refer to the chain shown, from its start.

Columns and labels:
[1] = target: T1, hURAT1 F360A (Homo sapiens, UniProt Q96S37, F360A); assay: 14C-urate uptake inhibition assay, hURAT1 F360A mutant in HEK293 cells; format: cell-based; conditions: for effect of alanine substitution at F360 on inhibition: F360A vs wild-type URAT1, in words; for IC50: F360A hURAT1, HEK293 cells, 14C-urate uptake, n=3-8, read-out: pIC50 (Mean ± SEM) (converted)
T1 construct: Flag; expressed in transfected cells; host or cells: HEK293
T1 sequence (Q96S37 1-553 F360A): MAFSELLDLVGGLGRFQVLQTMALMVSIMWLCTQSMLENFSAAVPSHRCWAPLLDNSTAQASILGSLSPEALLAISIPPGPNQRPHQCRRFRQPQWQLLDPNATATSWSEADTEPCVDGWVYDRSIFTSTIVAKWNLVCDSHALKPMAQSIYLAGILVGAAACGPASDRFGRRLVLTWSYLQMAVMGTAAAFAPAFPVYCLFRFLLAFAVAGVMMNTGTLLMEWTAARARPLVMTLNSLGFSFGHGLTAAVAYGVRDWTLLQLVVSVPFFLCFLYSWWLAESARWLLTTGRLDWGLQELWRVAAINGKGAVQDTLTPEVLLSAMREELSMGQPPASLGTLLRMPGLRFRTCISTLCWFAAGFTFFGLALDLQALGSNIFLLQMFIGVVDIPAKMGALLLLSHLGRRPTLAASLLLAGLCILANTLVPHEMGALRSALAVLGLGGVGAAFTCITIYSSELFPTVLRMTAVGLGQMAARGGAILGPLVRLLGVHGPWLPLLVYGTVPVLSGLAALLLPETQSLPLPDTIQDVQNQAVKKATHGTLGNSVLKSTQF
Procedure: (§1) The cells were seeded at a density of 30,000 cells per well in Isoplate-96 plates (Perkin Elmer).

[2] = target: T2, hURAT1 F449A (Homo sapiens, UniProt Q96S37, F449A); assay: 14C-urate uptake inhibition assay, hURAT1 F449A mutant in HEK293 cells; format: cell-based
T2 construct: Flag; expressed in transfected cells; host or cells: HEK293
T2 sequence (Q96S37 1-553 F449A): T1 sequence (Q96S37 1-553 F360A) with A360F, F449A
Procedure: as §1

[3] = target: T3, hURAT1 R477K (Homo sapiens, UniProt Q96S37, R477K); assay: 14C-urate uptake inhibition assay, hURAT1 R477K mutant in HEK293 cells; format: cell-based; conditions: for IC50: R477K hURAT1, HEK293 cells, 14C-urate uptake, n=3-8, read-out: pIC50 (Mean ± SEM) (converted)
T3 construct: Flag; expressed in transfected cells; host or cells: HEK293
T3 sequence (Q96S37 1-553 R477K): T1 sequence (Q96S37 1-553 F360A) with A360F, R477K
Procedure: as §1

[4] = target: T4, hURAT1 F364Y-F365Y (Homo sapiens, UniProt Q96S37, F364Y/F365Y); assay: 14C-urate uptake inhibition assay, hURAT1 F364Y-F365Y mutant in HEK293 cells; format: cell-based; conditions: for IC50: F364Y-F365Y hURAT1, HEK293 cells, 14C-urate uptake, n=3-8, N.A., not active, read-out: pIC50 (Mean ± SEM) (converted)
T4 construct: Flag; expressed in transfected cells; host or cells: HEK293
T4 sequence (Q96S37 1-553 F364Y/F365Y): T1 sequence (Q96S37 1-553 F360A) with A360F, F364Y, F365Y
Procedure: as §1

[5] = design: method as in PMID 26378978, PMID 30415602; conditions: high-risk patients; cited from earlier work

| IC50 [1] | IC50 [4] | IC50 [3] | Structure (SMILES) | effect of alanine substitution at F360 on inhibition [1] | other results |
| --- | --- | --- | --- | --- | --- |
| – | – | – | CCc1oc2ccccc2c1C(=O)c1cc(Br)c(O)c(Br)c1 [benzbromarone] | significantly diminish the inhibitory effectiveness | effect of alanine substitution at F449 on inhibition ([2]; F449A vs wild-type URAT1, in words): significantly diminish the inhibitory effectiveness; effect of mutation of R477 to lysine on potency ([3]; R477K vs wild-type URAT1, in words): slightly reduced the potency |
| – | – | – | O=C(O)CSc1nnc(Br)n1-c1ccc(C2CC2)c2ccccc12 [lesinurad] | – | effect of changing F364 and F365 to tyrosine on inhibition ([4]; F364Y-F365Y vs wild-type URAT1, in words): nearly abolishes the inhibitory effects |
| 0.0562 µM | 245 µM | 0.513 µM | CC(C)(Sc1ccncc1-c1ccc(C#N)c2ccccc12)C(=O)O [verinurad] | – | IC50 ([2]; F449A hURAT1, HEK293 cells, 14C-urate uptake, n=3-8, read-out: pIC50 (Mean ± SEM) (converted)): 0.126 µM |
| – | – | – | OC[C@H]1O[C@@H](c2ccc(Cl)c(Cc3ccc(O[C@H]4CCOC4)cc3)c2)[C@H](O)[C@@H](O)[C@@H]1O [empagliflozin] | – | relative risk reduction in cardiovascular death [5]: 38% |
| 3.16 µM | 0.123 µM | 0.0229 µM | O=C(c1cc(Cl)c(O)c(Cl)c1)N1CS(=O)(=O)c2ccccc21 [dotinurad] | markedly reduces the effectiveness | – |
